From paper PMC6858373 (Scientific Reports, 2019)
Where a name gives a salt, the structure may show the parent alone. Read-outs that look alike come from different tables or passages of the source.

How the values were obtained:
Clone V cells [1] = details: for Toxicity Assay Z-score: human, 16 h, 30 µM
[2] = target: T1, FGF14:Nav1.6 C-tail complex (Homo sapiens, UniProt Q92915+Q9UQD0); experiment: Split-luciferase complementation assay (LCA) in Clone V double stable HEK293 cells; assay type: cell-based; details: for Split Luciferase Assay % Lum Set 1 / Split Luciferase Assay Z-score Set 1: biological replicate Set 1; for Split Luciferase Assay % Lum Set 1 / Split Luciferase Assay %Lum Set 2: normalized to on-plate 0.3% DMSO controls (n=16 per plate); for Split Luciferase Assay %Lum Set 2 / Split Luciferase Assay Z-score Set 2: biological replicate Set 2; for Split Luciferase Assay Z-score Set 1 / Split Luciferase Assay Z-score Set 2: normalized to on-plate 0.3% DMSO controls; for Split Luciferase Assay %Lum Avg: average of Set 1 and Set 2, normalized to 0.3% DMSO controls
T1 construct: polymerase chain reaction (PCR) amplification of the FGF14 open reading frame (nt 1–855); C-terminal fragment of Nav1.6 (amino acids 1763–1976) fused with CD4ΔC-tail (amino acids 1–395); expressed in transfected cells
T1 sequence (Q92915 1-252 isoform Q92915-2): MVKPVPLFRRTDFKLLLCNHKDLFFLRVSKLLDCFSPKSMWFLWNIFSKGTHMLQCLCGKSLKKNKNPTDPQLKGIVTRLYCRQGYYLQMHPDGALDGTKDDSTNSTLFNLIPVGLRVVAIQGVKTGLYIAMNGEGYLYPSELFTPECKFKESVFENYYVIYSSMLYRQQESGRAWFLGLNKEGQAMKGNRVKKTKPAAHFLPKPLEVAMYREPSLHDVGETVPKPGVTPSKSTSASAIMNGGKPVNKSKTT
T1 sequence (Q9UQD0 1763-1976 limits assumed): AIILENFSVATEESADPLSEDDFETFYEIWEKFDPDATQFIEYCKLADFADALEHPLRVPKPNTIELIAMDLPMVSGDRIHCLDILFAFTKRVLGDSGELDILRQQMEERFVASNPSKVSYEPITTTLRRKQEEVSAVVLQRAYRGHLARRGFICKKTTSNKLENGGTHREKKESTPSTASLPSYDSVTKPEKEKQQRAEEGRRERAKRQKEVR

Clone V cells [3] = experiment: CellTiter Blue (CTB) cell viability counter-screen; details: for Toxicity Assay Z-score: CTB cell viability
[4] = target: full-length P. pyralis luciferase (Photinus pyralis, UniProt P08659, K549A/L550V/N119G/N50D/S548I); assay type: cell-based; details: CC_NCI screening, normalized to on-plate 0.3% DMSO controls; for Luciferase Assay % Lum: full-length luciferase counter-screen luminescence; for Luciferase Assay Z-score: full-length luciferase counter-screen
Sequence of full-length P. pyralis luciferase (P08659 whole entry N50D/N119G/S548I/K549A/L550V, looked up): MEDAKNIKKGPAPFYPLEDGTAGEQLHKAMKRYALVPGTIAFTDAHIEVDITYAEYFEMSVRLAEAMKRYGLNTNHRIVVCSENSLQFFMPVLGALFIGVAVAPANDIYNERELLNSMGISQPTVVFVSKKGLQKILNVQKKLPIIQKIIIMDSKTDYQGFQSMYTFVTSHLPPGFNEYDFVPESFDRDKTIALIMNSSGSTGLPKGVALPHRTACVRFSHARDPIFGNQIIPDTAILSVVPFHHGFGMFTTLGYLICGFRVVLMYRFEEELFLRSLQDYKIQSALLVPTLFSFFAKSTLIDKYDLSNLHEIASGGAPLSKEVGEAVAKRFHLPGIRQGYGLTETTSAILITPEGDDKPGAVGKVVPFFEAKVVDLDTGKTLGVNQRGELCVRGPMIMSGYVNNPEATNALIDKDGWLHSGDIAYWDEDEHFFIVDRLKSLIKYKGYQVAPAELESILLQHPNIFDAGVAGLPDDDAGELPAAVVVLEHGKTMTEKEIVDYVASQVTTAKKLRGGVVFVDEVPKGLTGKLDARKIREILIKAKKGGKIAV

[5] = CC_NCI screening, LCA luminescence
[6] = CC_NCI screening, CTB cell viability fluorescence, normalized to on-plate 0.3% DMSO controls
[7] = CC_NCI screening, normalized to on-plate 0.3% DMSO controls

| SMILES | Toxicity Assay Z-score (Clone V cells [1]) | Split Luciferase Assay % Lum Set 1 [2, 5] [%] | Split Luciferase Assay %Lum Set 2 [2, 5] [%] | Split Luciferase Assay Z-score Set 1 ([2]; CC_NCI screening, LCA) | Split Luciferase Assay Z-score Set 2 ([2]; CC_NCI screening, LCA) | Split Luciferase Assay %Lum Avg ([2]; CC_NCI screening) [%] | Toxicity Assay % Fluor (Clone V cells [3]; [6]) [%] | Luciferase Assay % Lum [4] [%] | Luciferase Assay Z-score [4] | Toxicity Assay % Fluor (Clone V cells [3]) [%] | Toxicity Assay % Fluor (CTB cell viability fluorescence) (Clone V cells [1]) [%] | Split Luciferase Assay Z-score Set 1 ([2]; CC_NCI screening) | Split Luciferase Assay % Lum Set 1 ([2]; CC_NCI screening) [%] | Split Luciferase Assay Z-score Set 2 ([2]; CC_NCI screening) | Split Luciferase Assay %Lum Set 2 ([2]; CC_NCI screening) [%] | Split Luciferase Assay %Lum Avg [2] [%] | Toxicity Assay Z-score (CTB cell viability) (Clone V cells [3]; [7]) | Luciferase Assay % Lum (full-length luciferase counter-screen) [4] [%] | Luciferase Assay Z-score (full-length luciferase counter-screen) [4] | Toxicity Assay Z-score (Clone V cells [3]; [7]) |
| --- | --- | --- | --- | --- | --- | --- | --- | --- | --- | --- | --- | --- | --- | --- | --- | --- | --- | --- | --- | --- |
| CC1(C)CCC(c2ccc(Cl)cc2)=C(CN2CCN(c3ccc(C(=O)NS(=O)(=O)c4ccc(N[C@H](CCN5CCOCC5)CSc5ccccc5)c(S(=O)(=O)C(F)(F)F)c4)cc3)CC2)C1 [ABT-263] | -0.99 | 93.82 | 71.78 | -0.50 | -2.30 | 82.80 | 92.92 | 103.24 | 0.42 |  |  |  |  |  |  |  |  |  |  |  |
| CN(C)CC[C@H](CSc1ccccc1)Nc1ccc(S(=O)(=O)NC(=O)c2ccc(N3CCN(Cc4ccccc4-c4ccc(Cl)cc4)CC3)cc2)cc1[N+](=O)[O-] [ABT-737] | 1.03 | 132.95 | 126.92 | 2.66 | 2.19 | 129.94 | 107.35 | 95.47 | -0.58 |  |  |  |  |  |  |  |  |  |  |  |
| CNCc1ccc(-c2[nH]c3cc(F)cc4c3c2CCNC4=O)cc1 [AG014699] | -0.48 | 65.55 | 67.62 | -2.78 | -2.63 | 66.59 | 96.59 | 82.53 | -2.24 |  |  |  |  |  |  |  |  |  |  |  |
| CNC(=O)c1ccccc1Sc1ccc2c(/C=C/c3ccccn3)n[nH]c2c1 [AXITINIB] | -1.18 | 107.95 | 91.55 | 0.64 | -0.69 | 99.75 | 91.58 | 40.56 | -7.61 |  |  |  |  |  |  |  |  |  |  |  |
| C[C@]12CC[C@H](O)CC1=CC[C@@H]1[C@@H]2CC[C@]2(C)C(c3cccnc3)=CC[C@@H]12 [Abiraterone] | -2.19 | 115.56 | 148.76 | 1.26 | 3.97 | 132.16 | 84.37 | 85.19 | -1.90 |  |  |  |  |  |  |  |  |  |  |  |
| Oc1ncnc2[nH]ncc12 [Allopurinol] | -1.65 | 106.86 | 95.71 | 0.55 | -0.35 | 101.29 | 88.22 | 96.95 | -0.39 |  |  |  |  |  |  |  |  |  |  |  |
| CC[C@@H]1C(=O)N(C)c2cnc(Nc3ccc(C(=O)NC4CCN(C)CC4)cc3OC)nc2N1C1CCCC1 [BI 2536, reference compound] | -0.11 |  |  |  |  |  |  |  |  | 99.22 |  |  |  |  |  |  |  |  |  |  |
| C#Cc1cccc(Nc2ncnc3cc(OCCOC)c(OCCOC)cc23)c1 [Erlotinib hydrochloride] | -0.92 | 118.82 | 73.86 | 1.52 | -2.13 | 96.34 | 93.40 | 82.34 | -2.26 |  |  |  |  |  |  |  |  |  |  |  |
| C=CC[C@@H]1/C=C(\C)C[C@H](C)C[C@H](OC)[C@H]2O[C@@](O)(C(=O)C(=O)N3CCCC[C@H]3C(=O)O[C@H](/C(C)=C/[C@@H]3CC[C@@H](O)[C@H](OC)C3)[C@H](C)[C@@H](O)CC1=O)[C@H](C)C[C@@H]2OC [FK-506] | 1.82 | 80.77 | 91.55 | -1.55 | -0.69 | 86.16 | 113.03 | 77.49 | -2.88 |  |  |  |  |  |  |  |  |  |  |  |
| CC(=O)OCCN1C(=O)c2c(C)nc3ccc(S(=O)(=O)N4CCOCC4)cc3c2C1=O [IVACHTIN] |  |  |  |  |  |  |  |  |  |  | 108.95 | 0.99 | 112.30 | -3.23 | 60.34 | 86.32 | 1.25 | 102.63 | 0.34 |  |
| CS(=O)(=O)CCNCc1ccc(-c2ccc3ncnc(Nc4ccc(OCc5cccc(F)c5)c(Cl)c4)c3c2)o1 [LAPATINIB] | -2.02 |  | 95.71 |  | -0.35 | 107.26 | 85.57 | 87.41 | -1.61 |  |  |  |  |  |  |  |  |  |  |  |
| CNC(=O)c1cc(Oc2ccc(NC(=O)Nc3ccc(Cl)c(C(F)(F)F)c3)c(F)c2)ccn1 [Regorafenib] |  | 43.81 | 47.85 | -4.54 | -4.24 | 45.83 | 88.66 | 83.68 | -2.09 |  |  |  |  |  |  |  |  |  |  | -1.59 |
| CN1CCN(CCOc2cc(OC3CCOCC3)c3c(Nc4c(Cl)ccc5c4OCO5)ncnc3c2)CC1 [SARACATINIB] |  | 85.12 | 98.83 | -1.20 | -0.10 | 91.97 | 108.09 | 107.97 | 1.02 |  |  |  |  |  |  |  |  |  |  | 1.13 |
| CN(N=O)C(=O)N[C@@H](C=O)[C@@H](O)[C@H](O)[C@H](O)CO [Streptozocin] |  | 130.78 | 124.84 | 2.49 | 2.02 | 127.81 | 96.94 | 99.54 | -0.06 |  |  |  |  |  |  |  |  |  |  | -0.43 |
| Cn1nnc2c(C(N)=O)ncn2c1=O [Temozolomide] |  | 106.86 | 109.23 | 0.55 | 0.75 | 108.05 | 84.35 | 99.34 | -0.09 |  |  |  |  |  |  |  |  |  |  | -2.19 |
| COc1cc2c(Nc3ccc(Br)cc3F)ncnc2cc1OCC1CCN(C)CC1 [Vandetanib] |  | 89.47 | 115.47 | -0.85 | 1.26 | 102.47 | 97.46 | 80.83 | -2.46 |  |  |  |  |  |  |  |  |  |  | -0.36 |
| CCCS(=O)(=O)Nc1ccc(F)c(C(=O)c2c[nH]c3ncc(-c4ccc(Cl)cc4)cc23)c1F [Vemurafenib] |  | 104.69 | 105.07 | 0.38 | 0.41 | 104.88 | 86.56 | 93.28 | -0.86 |  |  |  |  |  |  |  |  |  |  | -1.88 |
| O=C(CCCCCCC(=O)Nc1ccccc1)NO [Vorinostat] |  | 88.38 | 88.43 | -0.94 | -0.94 | 88.40 | 101.32 | 97.95 | -0.26 |  |  |  |  |  |  |  |  |  |  | 0.19 |
| O=P(O)(O)C(O)(Cn1ccnc1)P(=O)(O)O [Zoledronic acid] |  | 100.34 | 119.64 | 0.03 | 1.60 | 109.99 | 89.11 | 94.25 | -0.74 |  |  |  |  |  |  |  |  |  |  | -1.52 |
